Assay results from patent US20090042912A1, “DIPHENYLIMIDAZOLYL COMPOUNDS AS INHIBITORS OF beta-SECRETASE” (Wyeth, priority 2004, published 2009).
Where two headings read alike, the source gives them in different places.

Tests used:
[1] = target: human BACE1 (Homo sapiens, UniProt P56817); assay: Fluorescent kinetic assay, inhibition of BACE1 (WABC-6 peptide substrate); type: biochemical; details: 10 nM enzyme, 25 μM substrate, pH 4.5, room temperature; read-out: IC50 (μM) BACE1.
Experimental: Evaluation of the Enzyme Activity of Test Compounds and the Inhibition of hBACE1, MuBACE1 and hBACE2 by Test Compounds
The concentration is determined by absorbance at 354 nm using an extinction coefficient ε of 18172 M^−1cm^−1, The substrate stock is stored in small aliquots at −80° C. [Substrate Stock]=ABS^354 nm*10^6/18172 ([…])
Dilution and mixing steps: total reaction volume: 100 μL • 1. 2× inhibitor dilutions in buffer A (66.7 mM Na-Acetate, pH 4.5, 0.0667% CHAPS) are prepared, • 2. 4× enzyme dilution in buffer A (66.7 mM Na-Acetate, pH 4.5, 0.0667% CHAPS) are prepared, • 3. 100 μM substrate dilution in 1× PBS is prepared, • 4. 50 μL 2× Inhibitor and 25 μL 100 μM substrate are added to each well of 96-well plate (from DYNEX Technologies, VWR #: 11311-046), the immediately 25 μL 4× enzyme are added to the inhibitor and substrate mixer, the fluorescence readings are initiated.
Readings at λex 320 nm and λem 420 nm are taken every 40-sec for 30 min at room temperature to determine the linear slope for substrate cleavage rate (vi).

[2] = target: T1, human BACE2 (Homo sapiens, UniProt Q9Y5Z0); assay: Fluorescent kinetic assay for human recombinant BACE 2 (WABC-6 peptide substrate); type: biochemical; details: for inhibition at 25 µM: read-out: BACE2. % inhibition; for IC50: 1.5 nM enzyme, 25 μM substrate, pH 4.5, room temperature
T1 sequence (Q9Y5Z0 63-518): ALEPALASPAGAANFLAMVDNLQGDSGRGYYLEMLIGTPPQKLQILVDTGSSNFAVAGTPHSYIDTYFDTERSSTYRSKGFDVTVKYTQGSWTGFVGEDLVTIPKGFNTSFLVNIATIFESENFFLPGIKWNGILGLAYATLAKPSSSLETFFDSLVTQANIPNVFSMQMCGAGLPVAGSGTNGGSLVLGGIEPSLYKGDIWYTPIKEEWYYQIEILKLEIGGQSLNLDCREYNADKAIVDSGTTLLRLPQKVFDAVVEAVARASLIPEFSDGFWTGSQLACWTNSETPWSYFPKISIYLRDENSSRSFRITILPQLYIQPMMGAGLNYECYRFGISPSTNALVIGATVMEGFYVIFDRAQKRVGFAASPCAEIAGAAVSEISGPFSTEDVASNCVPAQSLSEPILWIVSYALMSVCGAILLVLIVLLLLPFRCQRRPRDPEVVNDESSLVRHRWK
Experimental: Fluorescent Kinetic Assay for Human Recombinant BACE 2
This assay is used to provide kinetic and selectivity parameters for the analyses of the tested compounds.
Temperature: room temperature.
Dilution and Mixing Steps: Total Reaction Volume.: 100 μL • 1.
Readings at λex 320 nm, λem 420 nm are taken every 40-sec for 30 min at room temperature and to determine the linear slope for substrate cleavage rate (vi).

human BACE1, sequence (P56817 46-501): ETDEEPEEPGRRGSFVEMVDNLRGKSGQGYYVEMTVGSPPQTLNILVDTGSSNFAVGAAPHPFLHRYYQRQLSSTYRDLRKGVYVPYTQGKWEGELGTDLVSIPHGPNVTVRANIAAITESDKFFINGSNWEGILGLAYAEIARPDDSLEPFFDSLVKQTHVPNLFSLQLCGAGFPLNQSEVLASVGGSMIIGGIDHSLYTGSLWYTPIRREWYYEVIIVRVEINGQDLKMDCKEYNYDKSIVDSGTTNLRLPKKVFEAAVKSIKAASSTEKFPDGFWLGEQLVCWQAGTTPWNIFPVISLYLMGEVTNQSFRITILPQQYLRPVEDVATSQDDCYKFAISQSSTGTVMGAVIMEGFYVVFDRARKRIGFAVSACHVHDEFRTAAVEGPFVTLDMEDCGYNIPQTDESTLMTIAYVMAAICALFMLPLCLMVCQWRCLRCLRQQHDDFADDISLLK

IC50 [1]	melting point	IC50 [2]	inhibition at 25 µM ([2]; at 25 μM)	inhibition at 15.5 µM ([2]; at 15.5 μM)	Structure (SMILES)	inhibition at 25 µM [2]
0.02 µM	98 to 108 °C	2.26 µM	–	–	NC1=NC(c2ccc(OC(F)F)cc2)(c2cccc(-c3cccnc3F)c2)C2=NCC3(CC3)CN12 (stereo not drawn) [Example 44, 8′-[4-(Difluoromethoxy)phenyl]-8′-[3-(2-fluoropyridin-3-yl)phenyl]-2′,8′-dihydrospiro[cyclopropane-1,3′-imidazo[1,5-a]pyrimidin]-6′-amine]	–
0.08 µM	112 to 118 °C	3.22 µM	–	–	NC1=NC(c2ccc(OC(F)(F)F)cc2)(c2cccc(-c3cncc(F)c3)c2)C2=NCCCN12 (stereo not drawn) [Example 19, 8-[3-(5-fluoropyridin-3-yl)phenyl]-8-[4-(trifluoromethoxy)phenyl]-2,3,4,8-tetrahydroimidazo[1,5-a]pyrimidin-6-amine]	–
0.04 µM	112 to 116 °C	0.54 µM	–	–	NC1=NC(c2ccc(OC(F)(F)F)cc2)(c2cccc(-c3cncc(Cl)c3)c2)C2=NCCCN12 (stereo not drawn) [Example 20, 8-[3-(5-chloropyridin-3-yl)phenyl]-8-[4-(trifluoromethoxy)phenyl]-2,3,4,8-tetrahydroimidazo[1,5-a]pyrimidin-6-amine]	–
0.1 µM	99 to 122 °C	–	44%	–	NC1=NC(c2ccc(OC(F)(F)F)cc2)(c2ccc(F)c(-c3cccnc3F)c2)C2=NCCCN12 (stereo not drawn) [Example 15, 8-[4-fluoro-3-(2-fluoropyridin-3-yl)phenyl]-8-[4-(trifluoromethoxy)phenyl]-2,3,4,8-tetrahydroimidazo[1,5-a]pyrimidin-6-amine]	–
0.12 µM	122 °C	–	42%	–	COc1ccc(C2(c3ccc(F)c(-c4cncnc4)c3)N=C(N)N3CCCN=C32)cc1 (stereo not drawn) [Example 23, 8-(4-fluoro-3-pyrimidin-5-ylphenyl)-8-(4-methoxyphenyl)-2,3,4,8-tetrahydroimidazo[1,5-a]pyrimidin-6-amine]	–
0.09 µM	117 to 121 °C	6.57 µM	–	–	COc1ccc(C2(c3cccc(-c4cccnc4F)c3)N=C(N)N3CCCN=C32)cc1 (stereo not drawn) [Example 21, 8-[3-(2-fluoropyridin-3-yl)phenyl]-8-(4-methoxyphenyl]-2,3,4,8-tetrahydroimidazo[1,5-a]pyrimidin-6-amine]	–
0.093 µM	95 to 105 °C	–	–	47%	COCOc1ccc(C2(c3cccc(-c4cccnc4F)c3)N=C(N)N3CCCN=C32)cc1 (stereo not drawn) [Example 38, 8-[3-(2-Fluoro-pyridin-3-yl)-phenyl]-8-(4-methoxymethoxy-phenyl)-2,3,4,8-tetrahydro-imidazo[1,5-a]pyrimidin-6-ylamine]	–
0.018 µM	104 to 114 °C	1.23 µM	–	–	NC1=NC(c2ccc(OC(F)F)cc2)(c2cccc(-c3cccnc3F)c2)C2=NCCCN12 (stereo not drawn) [Example 41, 8-(4-Difluoromethoxyphenyl)-8-[3-(2-fluoropyridin-3-yl)phenyl]-2,3,4,8-tetrahydroimidazo[1,5-a]pyrimidin-6-ylamine]	–
0.06 µM	94 to 102 °C	4.68 µM	–	–	NC1=NC(c2ccc(OC(F)(F)F)cc2)(c2cccc(-c3cc(F)cnc3F)c2)C2=NCCCN12 (stereo not drawn) [Example 28]	–
0.15 µM	105 to 115 °C	–	25%	–	NC1=NC(c2ccc(OC(F)(F)F)cc2)(c2ccc(F)c(-c3cncnc3)c2)C2=NCCCN12 (stereo not drawn) [Example 13, 8-{[(4-Fluoro-3-pyrimidin-5-yl)phenyl]-8-[4-(trifluoromethoxy)phenyl]-2,3,4,8-tetrahydroimidazo[1,5-a]pyrimidin-6-yl}amine]	–
0.01 µM	96 to 107 °C	0.55 µM	–	–	NC1=NC(c2ccc(OC(F)F)cc2)(c2cccc(-c3cccnc3F)c2)C2=NCC3(COC3)CN12 (stereo not drawn) [Example 46, 8-[4-(Difluoromethoxy)phenyl]-8-[3-(2-fluoropyridin-3-yl)phenyl]-2,8-dihydrospiro[imidazo[1,5-a]pyrimidine-3,3′-oxetan]-6-amine]	–

Structure (SMILES)	IC50 [1]	melting point	IC50 [2]	inhibition at 25 µM ([2]; at 25 μM)	inhibition at 15.5 µM ([2]; at 15.5 μM)	inhibition at 25 µM [2]
NC1=NC(c2ccc(OC(F)(F)F)cc2)(c2ccc(F)c(-c3cncc(F)c3)c2)C2=NCCCN12 (stereo not drawn) [Example 14, {8-[4-Fluoro-3-(5-fluoropyrimidin-3-yl)phenyl]-8-[4-(trifluoromethoxy)phenyl]-2,3,4,8-tetrahydroimidazo[1,5-a]pyrimidin-6-yl}amine]	0.14 µM	94 to 105 °C	–	–	–	65%
